Experimental data published in patent US12538922B2, “Composition and methods for parasite control” (priority 2019, dated 2026).
Where a name gives a salt, the structure may show the parent alone. Read-outs that look alike come from different tables or passages of the source.

What was measured:
[1] = system: adult Aedes aegypti mosquitoes; assay: Mosquito repellency assay (landings and time on warm treated surface); format: in vivo; conditions: for Mean probing time [%, compared to control]: 100% = same time as on vehicle-treated surface; for Repellency, % reduction in landings vs vehicle control: repellency as percentage reduction of control, 100% = no landings
Method: The compound of the invention is mixed with ethanol to make a composition that can be applied to a surface and allowed to dry. After the surface is treated with the compounds of the invention and dried, it is heated to human body temperature, and the number of landings and the total time spent by the mosquitoes on the warm surface by adult Aedes aegypti mosquitoes is recorded automatically by machine vision to measure repellency of each compound.
Repellency (based on the number of individual landings on the warm surface) is expressed as a percentage reduction of the control, where the average number of mosquitoes landing on a warm surface treated only with the vehicle solvent is counted. 100% means no mosquitoes landed on the warm surface.
For mosquitoes that still landed on the warm surface, the time spent on the warm surface is also recorded and expressed as a percentage of the control, corresponding to the average time that mosquitoes spent on the same warm surface when treated only with the vehicle solvent. 100% mean that the mosquitoes spent the same time on the treated warm surface as on a warm surface treated only with the vehicle solvent.
Each compound/dose is tested in triplicate using a surface of 18.9 cm2 and 100 microliters of solution without the compound (the placebo) or with the compound dilution spread on the surface, and allowed to dry before the test. The average and standard error on triplicates is calculated. The control (using only vehicle solvent) is run with ethanol. The same population of mosquitoes is exposed first to the warm surface treated with the vehicle solvent, then to the surface treated with the compound. The concentration of the solution comprising the test compound was adjusted to ensure the treatment dosage of the compound is according to the final concentration per surface units area in the table.

[2] = system: R. sanguineus tick larvae; conditions: for Repellence Median (Q1-Q3) [%] / Knockdown Median (Q1-Q3) [%]: pure compound; for Repellence Median (Q1-Q3) [%]: median of replicates; for Knockdown Median (Q1-Q3) [%]: motility reduction over 9 min
Method: FIG. 1 Schematic representation of the tick repellent test. 30-60 tick larvae are deposited in the non-treated area of a circular arena (8.96 cm^2) whereby one quadrant of the surface (2.25 cm^2) is treated. After 1 minute, the distribution of ticks in the treated and untreated areas is measured for a duration of 2 minutes. The repellent/deterrent effect is expressed in %: 100% means that ticks completely avoided the treated surface. Toxicity is measured in the same setup over a duration of 8 minutes and the mortality is expressed in % motility reduction between the beginning and the end of the 8 minutes. Dosages are expressed as a quantity (mg or molarity) per surface unit (m^2), as the compound or extract is deposited at the bottom of the well. Pure compounds: dose given in micromoles/m^2; Extracts: dose given in micrograms/m^2. Tests were run in triplicates.
The assay is used to evaluate the repellent/deterrent potential of a test compound or extract. The test includes a preliminary assessment of knockdown efficacy as a secondary endpoint. Knockdown can be defined as a state of intoxication and paralysis that usually precedes death (Wickham et al. (1974) Pesticide Science 5(5): 657-664). The test relies on the questing behavior of ticks that explore their habitat to find a suitable host hunting site and their propensity to avoid areas treated with repellent or irritating substances. Tick knockdown is expressed as a reduction in total motility over a defined period of time, and not by collecting and counting the number of dead and live ticks at the end of the exposure period.
Plant extracts or synthetic pure alkaloids diluted in methanol (extracts) or ethanol (alkaloids) were deposited on the bottom of wells in a six-well plate. Only one quadrant ([…]) of the bottom surface of each well was treated. The solvent was left to evaporate. The final concentration of the plant extracts was, therefore, expressed in mg/m^2, or in micromoles per square meter (μmol/m^2) for the synthetic alkaloids. Final concentrations applied for plant extracts were 893 (R. sanguineus adults only), 446, 141, 44.6, 14.1, and 4.46 mg/m^2, and 300, 100, 30, 10, and 3 μmol/m^2 for pure alkaloids. Approximately 50 R. sanguineus tick larvae, and exactly 5 R. sanguineus adults, or 5 I. ricinus nymphs were added to the untreated area of each well. Positive (DEET, commercial tick repellent) and negative (methanol or ethanol) controls were evaluated in parallel. Each concentration tested was run in three or more test replicates. After a 1-min incubation on a heating plate, the frequency of tick movement in the treated quadrant and in each of the untreated quadrants was recorded by machine vision. Tick movement on the untreated surface was computed as the median of movement on the three untreated quadrants. To estimate deterrence recordings were performed over a period of 2 min for R. sanguineus larvae, and for 3 minutes for R. sanguineus adults and I. ricinus nymphs, after the 1-min pre-exposure period. To assess knockdown effect, recording was extended to 9 min (starting at the 1-min pre-exposure period and lasting an additional 8 minutes).
Deterrence activity was calculated as follows: Percent deterrence=1−(movements on treated area/movements on untreated area)×100.
A difference of 50% between total movements recorded in the treated area versus movements recorded in the untreated area was considered significant.
The tick knockdown effect was calculated similarly: Percent knockdown=1−(movements at the end of the imaging period/movements at the beginning of the imaging period)×100.
A difference of 50% between total movements recorded during the 1 min pre-exposure and total movements measured at 9 min of recording was considered significant.

[3] = dose 380 μmol/m^2, listed as S enantiomer HCl salt, dihydrochloride

Q: Which results are given for `C1=CC[C@@H](c2cccnc2)NC1` [(S)-anatabine dihydrochloride]?
A: Mean probing time [%, compared to control] [1, 3]: 71.5%; Repellency, % reduction in landings vs vehicle control [1, 3]: 25.4%; Mean probing time [%, compared to control] ([1]; dose 760 μmol/m^2): 62.7%; Repellency, % reduction in landings vs vehicle control ([1]; dose 760 μmol/m^2): 28.2%; MEC (μmol/m^2) ([2]; Table 5, N = 3 subset of Table 4): 300 μmol/m^2; % repellency ([2]; Table 5, N = 3 subset of Table 4, dose 30): 12%; % repellency ([2]; Table 5, N = 3 subset of Table 4, dose 300): 78%; Repellence Median (Q1-Q3) [%] ([2]; concentration 3 μmol/m^2): 38.4%; Knockdown Median (Q1-Q3) [%] ([2]; concentration 3 μmol/m^2): 0%; Repellence Median (Q1-Q3) [%] ([2]; concentration 10 μmol/m^2, dihydrochloride): 38.1%; Repellence Median (Q1-Q3) [%] ([2]; concentration 10 μmol/m^2, listed as (S)-anatabine, dihydrochloride): 38%; Knockdown Median (Q1-Q3) [%] ([2]; concentration 10 μmol/m^2): 4.2%; Repellence Median (Q1-Q3) [%] ([2]; concentration 30 μmol/m^2, dihydrochloride): 54.4%; Repellence Median (Q1-Q3) [%] ([2]; concentration 30 μmol/m^2, listed as (S)-anatabine, dihydrochloride): 54%; Knockdown Median (Q1-Q3) [%] ([2]; concentration 30 μmol/m^2): 14.7%; Repellence Median (Q1-Q3) [%] ([2]; concentration 100 μmol/m^2, dihydrochloride): 86.2%; Repellence Median (Q1-Q3) [%] ([2]; concentration 100 μmol/m^2, listed as (S)-anatabine, dihydrochloride): 86%; Knockdown Median (Q1-Q3) [%] ([2]; concentration 100 μmol/m^2): 23.8%; Repellence Median (Q1-Q3) [%] ([2]; concentration 300 μmol/m^2): 79.8%; Knockdown Median (Q1-Q3) [%] ([2]; concentration 300 μmol/m^2): 14.2%; Knockdown Minimum effective concentration ([2]; smallest concentration with median activity above 50% significance limit): >300 μmol/m^2; Repellence Minimum effective concentration ([2]; smallest concentration with median activity above 50% significance limit, dihydrochloride): 30 μmol/m^2
